Measured values as given in US20180098969A1, “HODGKIN LYMPHOMA THERAPY” (Purdue Pharmaceutical Products L.P., priority 2016, published 2018).

How the values were obtained:
L1236-R100 = test: Viable cell count and IC50, bendamustine-resistant line; type: cell-based, human
Description: (b) The bendamustine-resistant Hodgkin lymphoma cell line L1236-R100, non-resistant L1236 Hodgkin lymphoma cell line cultured in DMSO L1236/DMSO and L1236 […] Control cells were cultured in the same final concentration of DMSO. The number of viable cells was assessed at 24, 48 and 72 hours through a Countess™ automated cell counter (Invitrogen), each experiment being repeated three times and the results given being the mean of the three results ±SD.

L428 cells = test: Xenograft in NSG mice, CD30 immunofluorescence of cytospin slides; type: in vivo; set-up: key to Spleen, red pulp activation, diffuse / Liver, Tumour cell infiltration: “0”=without any staining; “1”=minimal, <1% staining; “2”=mild, 1% staining; “3”=moderate, <10% staining; “4”=marked, 10-40% staining; “5”=severe, >40% of cells staining; conditions: for Bone Marrow: Tumour infiltration: Marked / Bone Marrow: Tumour infiltration: Mild / Bone Marrow: Tumour infiltration: Minimal / Bone Marrow: Tumour infiltration: Moderate / Bone Marrow: Tumour infiltration: No / Bone Marrow: Tumour infiltration: Overall / Bone Marrow: Tumour infiltration: Severe / Injection site: Tumour infiltration: Marked / Injection site: Tumour infiltration: Mild / Injection site: Tumour infiltration: Minimal / Injection site: Tumour infiltration: Moderate / Injection site: Tumour infiltration: No / Injection site: Tumour infiltration: Overall / Injection site: Tumour infiltration: Severe / Liver: Tumour infiltration: Marked / Liver: Tumour infiltration: Mild / Liver: Tumour infiltration: Minimal / Liver: Tumour infiltration: Moderate / Liver: Tumour infiltration: No / Liver: Tumour infiltration: Overall / Liver: Tumour infiltration: Severe / Spleen: Tumour infiltration: Marked / Spleen: Tumour infiltration: Mild / Spleen: Tumour infiltration: Minimal / Spleen: Tumour infiltration: Moderate / Spleen: Tumour infiltration: No / Spleen: Tumour infiltration: Overall / Spleen: Tumour infiltration: Severe / Tumour presence: Overall: % of mice
Excerpt: Immunodeficient NOD-SCID-gammac−/− (NSG) mice aged 5 to 6 weeks were purchased from Charles River (NOD.Cg-Prkdcscid Il2rgtm1Wjl/SzJ). The mice arrived two weeks before the beginning of the experiments and were housed in micro-isolator cages during the entire course of the study. Immediately prior to the injection of Hodgkin lymphoma cells, mice were exposed to 3 Gy gamma irradiation using an IBL637 ^137Cs irradiator at a dose rate of 0.61 Gy/min. From 10^3 to 10^6 cells, either from the original cell lines or following amplification, were injected intravenously via the retro-orbital sinus. The mice were sacrificed by cervical dislocation and different organs were analysed and tumoural infiltration examined using multiple techniques.
Two independent experiments were performed to investigate the dose-effect of EDO-S101 in NSG mice eight weeks after xenografting with L428 cells as in Example 8. The aim of the protocol shown in FIG. […]
The mice were sacrificed by cervical dislocation. The sampled organs consisted of the eyes (site of injection), liver, spleen and bone marrow. Following dissection of different organs, including tumours, the first portion was used for flow cytometry (FACS) and cytogenetic analyses while the second was fixed in 4% paraformaldehyde (PFA) for immunohistochemistry (IHC). To obtain a single cell suspension, the tissues were first cut into pieces. Thereafter, the cells were physically disaggregated using an 80 μm nylon cell strainer and filtered a second time through a 70 μm nylon cell strainer (BD Biosciences, Erembodegem, Belgium).
Cells were cytospun onto poly-L-lysine-coated glass slides at 700 rpm for 4 min, fixed with 10% formalin for 10 min, and treated with 0.25% Triton X-100 solution for 10 min. After blocking with 5% bovine serum albumin (Sigma), the cells were incubated with an anti-CD30 antibody (DAKO A/S, Glostrup, Denmark). Then, cells were treated with Cyanine 3 anti-mouse IgG (Invitrogen, Carlsbad, Calif.). As a negative control, staining was carried out in the absence of primary antibody. The L428-s cell line served as positive control.
Individual microscopic findings following immunofluorescence CD30 staining of cytopsin slides: “0”=without any staining; “1”=minimal, <1% staining; “2”=mild, 1% staining; “3”=moderate, <10% staining; “4”=marked, 10-40% staining; “5”=severe, >40% of cells staining.

Q: What does the source list for `Cn1c(CCCCCCC(=O)NO)nc2cc(N(CCCl)CCCl)ccc21` [EDO-S101]?
A: anti-proliferative activity compared with vorinostat (L1236-R100): greater than that of vorinostat; viable cells (L1236-R100; 48 hours after treatment with 50 μM): no viable cells being observed; Bone Marrow: Tumour infiltration: Marked (L428 cells; 80 mg/kg): 0.0%; Bone Marrow: Tumour infiltration: Mild (L428 cells; 80 mg/kg): 0.0%; Bone Marrow: Tumour infiltration: Minimal (L428 cells; 80 mg/kg): 33.3%; Bone Marrow: Tumour infiltration: Moderate (L428 cells; 80 mg/kg): 0.0%; Bone Marrow: Tumour infiltration: No (L428 cells; 80 mg/kg): 33.3%; Bone Marrow: Tumour infiltration: Overall (L428 cells; 80 mg/kg): 33.3%; Bone Marrow: Tumour infiltration: Severe (L428 cells; 80 mg/kg): 0.0%; Injection site: Tumour infiltration: Marked (L428 cells; 80 mg/kg): 0.0%; Injection site: Tumour infiltration: Mild (L428 cells; 80 mg/kg): 33.3%; Injection site: Tumour infiltration: Minimal (L428 cells; 80 mg/kg): 0.0%; Injection site: Tumour infiltration: Moderate (L428 cells; 80 mg/kg): 0.0%; Injection site: Tumour infiltration: No (L428 cells; 80 mg/kg): 0.0%; Injection site: Tumour infiltration: Overall (L428 cells; 80 mg/kg): 33.3%; Injection site: Tumour infiltration: Severe (L428 cells; 80 mg/kg): 0.0%; Liver: Tumour infiltration: Marked (L428 cells; 80 mg/kg): 0.0%; Liver: Tumour infiltration: Mild (L428 cells; 80 mg/kg): 0.0%; Liver: Tumour infiltration: Minimal (L428 cells; 80 mg/kg): 0.0%; Liver: Tumour infiltration: Moderate (L428 cells; 80 mg/kg): 0.0%; Liver: Tumour infiltration: No (L428 cells; 80 mg/kg): 100.0%; Liver: Tumour infiltration: Overall (L428 cells; 80 mg/kg): 0.0%; Liver: Tumour infiltration: Severe (L428 cells; 80 mg/kg): 0.0%; Spleen: Tumour infiltration: Marked (L428 cells; 80 mg/kg): 0.0%; Spleen: Tumour infiltration: Mild (L428 cells; 80 mg/kg): 0.0%; Spleen: Tumour infiltration: Minimal (L428 cells; 80 mg/kg): 0.0%; Spleen: Tumour infiltration: Moderate (L428 cells; 80 mg/kg): 0.0%; Spleen: Tumour infiltration: No (L428 cells; 80 mg/kg): 33.3%; Spleen: Tumour infiltration: Overall (L428 cells; 80 mg/kg): 0.0%; Spleen: Tumour infiltration: Severe (L428 cells; 80 mg/kg): 0.0%; Tumour presence: Overall (L428 cells; 80 mg/kg): 66.7%; Bone Marrow: Tumour infiltration: Marked (L428 cells; 1 * 60 mg/kg): 0.0%; Bone Marrow: Tumour infiltration: Mild (L428 cells; 1 * 60 mg/kg): 0.0%; Bone Marrow: Tumour infiltration: Minimal (L428 cells; 1 * 60 mg/kg): 25.0%; Bone Marrow: Tumour infiltration: Moderate (L428 cells; 1 * 60 mg/kg): 0.0%; Bone Marrow: Tumour infiltration: No (L428 cells; 1 * 60 mg/kg): 0.0%; Bone Marrow: Tumour infiltration: Overall (L428 cells; 1 * 60 mg/kg): 25.0%; Bone Marrow: Tumour infiltration: Severe (L428 cells; 1 * 60 mg/kg): 0.0%; Injection site: Tumour infiltration: Marked (L428 cells; 1 * 60 mg/kg): 75.0%; Injection site: Tumour infiltration: Mild (L428 cells; 1 * 60 mg/kg): 0.0%; Injection site: Tumour infiltration: Minimal (L428 cells; 1 * 60 mg/kg): 0.0%; Injection site: Tumour infiltration: Moderate (L428 cells; 1 * 60 mg/kg): 25.0%; Injection site: Tumour infiltration: No (L428 cells; 1 * 60 mg/kg): 0.0%; Injection site: Tumour infiltration: Overall (L428 cells; 1 * 60 mg/kg): 100.0%; Injection site: Tumour infiltration: Severe (L428 cells; 1 * 60 mg/kg): 0.0%; Liver: Tumour infiltration: Marked (L428 cells; 1 * 60 mg/kg): 0.0%; Liver: Tumour infiltration: Mild (L428 cells; 1 * 60 mg/kg): 0.0%; Liver: Tumour infiltration: Minimal (L428 cells; 1 * 60 mg/kg): 50.0%; Liver: Tumour infiltration: Moderate (L428 cells; 1 * 60 mg/kg): 25.0%; Liver: Tumour infiltration: No (L428 cells; 1 * 60 mg/kg): 25.0%; Liver: Tumour infiltration: Overall (L428 cells; 1 * 60 mg/kg): 75.0%; Liver: Tumour infiltration: Severe (L428 cells; 1 * 60 mg/kg): 0.0%; Spleen: Tumour infiltration: Marked (L428 cells; 1 * 60 mg/kg): 0.0%; Spleen: Tumour infiltration: Mild (L428 cells; 1 * 60 mg/kg): 0.0%; Spleen: Tumour infiltration: Minimal (L428 cells; 1 * 60 mg/kg): 0.0%; Spleen: Tumour infiltration: Moderate (L428 cells; 1 * 60 mg/kg): 0.0%; Spleen: Tumour infiltration: No (L428 cells; 1 * 60 mg/kg): 25.0%; Spleen: Tumour infiltration: Overall (L428 cells; 1 * 60 mg/kg): 0.0%; Spleen: Tumour infiltration: Severe (L428 cells; 1 * 60 mg/kg): 0.0%; Tumour presence: Overall (L428 cells; 1 * 60 mg/kg): 100.0%; Bone marrow (L428 cells; 1 * 60 mg/kg, individual mice): 1 (“1”=minimal, <1% staining); Spleen, red pulp activation, diffuse (L428 cells; 1 * 60 mg/kg, individual mice): 0; Eye and/or periocular mucosa, periocular tumour cell infiltration, focal/multifocal/diffuse (L428 cells; 1 * 80 mg/kg, individual mice): 2 (“2”=mild, 1% staining); Liver, Tumour cell infiltration (L428 cells; 1 * 80 mg/kg, individual mice): 0; Spleen, red pulp activation, diffuse (L428 cells; 1 * 80 mg/kg, individual mice): 0; Bone Marrow: Tumour infiltration: Marked (L428 cells; 2 * 60 mg/kg): 0.0%; Bone Marrow: Tumour infiltration: Mild (L428 cells; 2 * 60 mg/kg): 0.0%; Bone Marrow: Tumour infiltration: Minimal (L428 cells; 2 * 60 mg/kg): 55.6%; Bone Marrow: Tumour infiltration: Moderate (L428 cells; 2 * 60 mg/kg): 0.0%; Bone Marrow: Tumour infiltration: No (L428 cells; 2 * 60 mg/kg): 22.2%; Bone Marrow: Tumour infiltration: Overall (L428 cells; 2 * 60 mg/kg): 55.6%; Bone Marrow: Tumour infiltration: Severe (L428 cells; 2 * 60 mg/kg): 0.0%; Injection site: Tumour infiltration: Marked (L428 cells; 2 * 60 mg/kg): 0.0%; Injection site: Tumour infiltration: Mild (L428 cells; 2 * 60 mg/kg): 11.1%; Injection site: Tumour infiltration: Minimal (L428 cells; 2 * 60 mg/kg): 0.0%; Injection site: Tumour infiltration: Moderate (L428 cells; 2 * 60 mg/kg): 0.0%; Injection site: Tumour infiltration: No (L428 cells; 2 * 60 mg/kg): 0.0%; Injection site: Tumour infiltration: Overall (L428 cells; 2 * 60 mg/kg): 11.1%; Injection site: Tumour infiltration: Severe (L428 cells; 2 * 60 mg/kg): 0.0%; Liver: Tumour infiltration: Marked (L428 cells; 2 * 60 mg/kg): 0.0%; Liver: Tumour infiltration: Mild (L428 cells; 2 * 60 mg/kg): 11.1%; Liver: Tumour infiltration: Minimal (L428 cells; 2 * 60 mg/kg): 44.4%; Liver: Tumour infiltration: Moderate (L428 cells; 2 * 60 mg/kg): 0.0%; Liver: Tumour infiltration: No (L428 cells; 2 * 60 mg/kg): 44.4%; Liver: Tumour infiltration: Overall (L428 cells; 2 * 60 mg/kg): 55.6%; Liver: Tumour infiltration: Severe (L428 cells; 2 * 60 mg/kg): 0.0%; Spleen: Tumour infiltration: Marked (L428 cells; 2 * 60 mg/kg): 0.0%; Spleen: Tumour infiltration: Mild (L428 cells; 2 * 60 mg/kg): 0.0%; Spleen: Tumour infiltration: Minimal (L428 cells; 2 * 60 mg/kg): 44.4%; Spleen: Tumour infiltration: Moderate (L428 cells; 2 * 60 mg/kg): 0.0%; Spleen: Tumour infiltration: No (L428 cells; 2 * 60 mg/kg): 11.1%; Spleen: Tumour infiltration: Overall (L428 cells; 2 * 60 mg/kg): 44.4%; Spleen: Tumour infiltration: Severe (L428 cells; 2 * 60 mg/kg): 0.0%; Tumour presence: Overall (L428 cells; 2 * 60 mg/kg): 66.7%; Eye and/or periocular mucosa, periocular tumour cell infiltration, focal/multifocal/diffuse (L428 cells; 2 * 60 mg/kg, individual mice): 2 (“2”=mild, 1% staining); tumour cells in organs (liver, spleen, bone marrow) (L428 cells; single dose of 80 mg/kg): No tumour cells were observed in any organs
